Laboratory results as given in ChEMBL document CHEMBL1201862, “PubChem BioAssay data set” (2004).
The source made the active and inactive calls.

Key:
[1] = inhibitors of clade B AD8 Env fusion, dose response, cell-based, cherry-pick (AID 652062); format: functional;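 further: luciferase signal from cell-cell fusion driven by HIV-1 clade B AD8 Env; potency is for inhibitors of fusion seen as a drop in luminescence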
[2] = inhibitors of HIV Env-driven cell fusion, dose response, cherry-pick (AID 652057); format: functional, cell-based
[3] = off-target signal loss in HeLa-CEM21 co-culture – HeLa F-luc CTL cells, cherry-picked, counter-screen for HIV-1 Env fusion inhibitor project, dose response (AID 652040); format: functional, cell-based;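 further: potency for signal decrease marking cytotoxic or nonspecific inhibition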
[4] = ZM109 Env clade C HIV-1 fusion inhibitors, dose response, HeLa effector, CEM target cells, luciferase, cherry-pick (AID 652058); format: functional, cell-based
Genome polyprotein = Genome polyprotein (dengue virus type 2, UniProt P29990); experiment: Dengue-2 NS5 methyltransferase inhibitors, primary screen, biochemical, confirmation dose response (AID 588689); format: functional
Cytochrome P450 2C9 [5] = molecular target: T1, Cytochrome P450 2C9 (Homo sapiens, UniProt P11712)
Cytochrome P450 3A4 = Cytochrome P450 3A4 (Homo sapiens, UniProt P08684);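 further: CYP3A4 tested as one member of a cytochrome P450 panel screen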
Cytochrome P450 2C19 = Cytochrome P450 2C19 (Homo sapiens, UniProt P33261); experiment: Cytochrome panel assay with activity outcomes. Panel member name: p450-cyp2c19 Compounds with AC50 equal or less than 10 uM are considered active; format: functional; conditions: read-out: AC50
Cytochrome P450 1A2 = molecular target: T2, Cytochrome P450 1A2 (Homo sapiens, UniProt P05177);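 further: PubChem cytochrome P450 panel assay, CYP1A2 panel member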
T2 sequence (P05177 whole entry): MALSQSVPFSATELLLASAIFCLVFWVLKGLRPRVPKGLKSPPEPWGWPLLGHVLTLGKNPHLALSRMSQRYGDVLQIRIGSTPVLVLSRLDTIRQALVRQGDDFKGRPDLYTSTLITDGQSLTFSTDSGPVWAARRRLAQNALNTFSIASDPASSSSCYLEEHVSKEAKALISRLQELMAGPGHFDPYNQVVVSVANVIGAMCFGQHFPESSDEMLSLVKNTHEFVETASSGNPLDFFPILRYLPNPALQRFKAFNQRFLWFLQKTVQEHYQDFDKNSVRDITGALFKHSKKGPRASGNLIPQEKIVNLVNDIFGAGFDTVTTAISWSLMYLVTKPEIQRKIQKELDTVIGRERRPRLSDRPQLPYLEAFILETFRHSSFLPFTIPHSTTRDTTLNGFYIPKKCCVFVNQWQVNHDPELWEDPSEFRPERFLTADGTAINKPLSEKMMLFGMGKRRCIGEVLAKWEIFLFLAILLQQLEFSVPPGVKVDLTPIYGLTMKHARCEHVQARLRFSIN

Cytochrome P450 2C9 [6] = molecular target: T1, Cytochrome P450 2C9; remark: listed apart in the source
Cytochrome P450 2D6 = Cytochrome P450 2D6 (Homo sapiens, UniProt P10635);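 further: CYP2D6 member of a cytochrome P450 panel assay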
Phospholipase A2 = Phospholipase A2 (Homo sapiens, UniProt P04054); format: functional;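 further: confirmatory dose-response counterscreen on phospholipase A2, testing hits that came from an ultra-high-throughput screen for ATG4B inhibitors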
Cysteine protease ATG4B = molecular target: T3, Cysteine protease ATG4B (Homo sapiens, UniProt Q9Y4P1); format: functional;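 further: Fluorescence-based dose-response confirmation assay measuring inhibition of ATG4B activity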
T3 sequence (Q9Y4P1 whole entry): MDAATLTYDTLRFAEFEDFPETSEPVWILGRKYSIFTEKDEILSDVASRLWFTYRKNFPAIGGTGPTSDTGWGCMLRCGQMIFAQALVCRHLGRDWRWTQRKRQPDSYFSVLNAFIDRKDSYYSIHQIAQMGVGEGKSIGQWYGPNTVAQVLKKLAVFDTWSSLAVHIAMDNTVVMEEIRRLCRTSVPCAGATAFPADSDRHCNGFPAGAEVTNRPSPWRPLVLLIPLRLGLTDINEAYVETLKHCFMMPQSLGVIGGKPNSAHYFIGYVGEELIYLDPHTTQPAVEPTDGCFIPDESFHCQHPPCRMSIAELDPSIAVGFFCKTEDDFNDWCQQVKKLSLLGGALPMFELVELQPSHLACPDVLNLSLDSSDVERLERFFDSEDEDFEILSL

[7] = cytotoxicity toward NIH3T3 fibroblasts, dose response, counter-screen, cell-based, ATP luminescence, mouse fibroblasts (AID 2010); format: functional;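 further: cells exposed to compound for about 90 hours before reading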
[8] = inhibitors of intracellular T. cruzi replication, confirmation, NIH3T3 host cells, beta-gal luminescence (AID 2044); format: functional, cell-based;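 further: intracellular parasites grown in NIH/3T3 mouse fibroblasts as host cells; luminescent beta-galactosidase reporter signal from transgenic T. cruzi replicating inside host cells; inhibitors lower the luminescence signal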
cells = format: functional
[9] = molecular target: Heat shock protein HSP 90-alpha (Homo sapiens, UniProt P07900); format: functional, organism-based
Streptococcus = experiment: Group A Streptococcus viability loss, dose response, counter-screen for streptokinase expression inhibitor project, luminescence, BacTiterGlo (AID 1915); format: functional, organism-based;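 further: potency for reduction of bacterial viability or growth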
[10] = test system: Streptococcus sp. 'group A'; experiment: growth inhibition of control SK(-) GAS strain, dose response, counter-screen for streptokinase expression inhibitor project, luminescence, kanamycin, BacTiterGlo, confirmation (AID 1900); format: functional, organism-based
[11] = molecular target: T4, Carboxy-terminal domain RNA polymerase II polypeptide A small phosphatase 1 (Homo sapiens, UniProt Q9GZU7); experiment: inhibitors of CTDSP1, concentration-response testing, biochemical assay, absorbance-based, actives from ultra-high-throughput screening (AID 540297); format: functional
T4 sequence (Q9GZU7 whole entry): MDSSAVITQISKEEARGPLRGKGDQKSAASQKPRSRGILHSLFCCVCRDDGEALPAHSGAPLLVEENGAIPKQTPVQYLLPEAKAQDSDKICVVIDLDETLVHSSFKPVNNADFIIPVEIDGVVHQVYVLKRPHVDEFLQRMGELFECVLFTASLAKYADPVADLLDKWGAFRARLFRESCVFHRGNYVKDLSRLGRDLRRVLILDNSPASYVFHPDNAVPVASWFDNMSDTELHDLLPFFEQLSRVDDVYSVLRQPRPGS

Streptokinase A = molecular target: T5, Streptokinase A (Streptococcus pyogenes serotype M1, UniProt P10520); experiment: S. pyogenes streptokinase expression inhibitors, potency, dose response, plasminogen activation absorbance, OD405 (AID 1914); format: functional, Streptococcus pyogenes M1 GAS;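 further: secreted streptokinase activity via plasminogen activation per viability signal from cell pellet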
T5 sequence (P10520 whole entry): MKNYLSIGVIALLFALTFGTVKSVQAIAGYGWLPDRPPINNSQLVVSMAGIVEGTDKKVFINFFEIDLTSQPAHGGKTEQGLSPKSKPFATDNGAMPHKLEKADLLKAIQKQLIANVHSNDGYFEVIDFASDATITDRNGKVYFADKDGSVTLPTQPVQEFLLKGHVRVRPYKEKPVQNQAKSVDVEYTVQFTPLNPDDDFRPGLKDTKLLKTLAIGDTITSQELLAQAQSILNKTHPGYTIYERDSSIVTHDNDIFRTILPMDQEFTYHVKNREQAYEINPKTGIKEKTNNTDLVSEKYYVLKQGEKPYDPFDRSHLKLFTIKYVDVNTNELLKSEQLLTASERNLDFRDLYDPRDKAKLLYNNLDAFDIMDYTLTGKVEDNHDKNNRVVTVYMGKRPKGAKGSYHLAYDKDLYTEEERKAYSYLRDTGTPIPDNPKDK

T1 sequence (P11712 whole entry): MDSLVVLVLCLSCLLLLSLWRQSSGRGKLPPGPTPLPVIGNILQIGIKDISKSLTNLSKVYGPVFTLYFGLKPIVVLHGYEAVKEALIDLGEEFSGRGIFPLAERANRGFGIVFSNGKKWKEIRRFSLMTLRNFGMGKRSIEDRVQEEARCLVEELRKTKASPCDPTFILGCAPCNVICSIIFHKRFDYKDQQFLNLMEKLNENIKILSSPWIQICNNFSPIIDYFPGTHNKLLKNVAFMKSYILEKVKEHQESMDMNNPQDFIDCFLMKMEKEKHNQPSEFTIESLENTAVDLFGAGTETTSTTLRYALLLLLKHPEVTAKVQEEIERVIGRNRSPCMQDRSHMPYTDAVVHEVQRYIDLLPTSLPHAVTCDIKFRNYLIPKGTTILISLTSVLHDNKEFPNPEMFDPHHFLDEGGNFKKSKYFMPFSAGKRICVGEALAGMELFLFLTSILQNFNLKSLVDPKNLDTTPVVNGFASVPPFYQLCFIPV
Cytochrome P450 3A4, sequence (P08684 whole entry): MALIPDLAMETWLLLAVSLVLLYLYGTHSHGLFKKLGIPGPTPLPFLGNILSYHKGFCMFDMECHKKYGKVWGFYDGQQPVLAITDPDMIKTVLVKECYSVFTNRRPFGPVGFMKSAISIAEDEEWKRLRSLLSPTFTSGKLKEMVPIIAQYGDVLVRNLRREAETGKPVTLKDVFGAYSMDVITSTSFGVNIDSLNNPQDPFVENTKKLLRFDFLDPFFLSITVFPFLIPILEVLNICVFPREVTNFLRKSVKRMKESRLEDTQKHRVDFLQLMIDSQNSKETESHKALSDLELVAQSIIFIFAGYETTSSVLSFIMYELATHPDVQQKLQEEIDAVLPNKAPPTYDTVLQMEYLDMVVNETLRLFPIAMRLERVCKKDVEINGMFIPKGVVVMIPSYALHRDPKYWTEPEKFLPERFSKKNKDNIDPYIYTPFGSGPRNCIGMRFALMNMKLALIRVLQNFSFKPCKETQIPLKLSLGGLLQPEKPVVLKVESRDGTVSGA
Genome polyprotein, sequence (P29990 2492-3391 limits assumed): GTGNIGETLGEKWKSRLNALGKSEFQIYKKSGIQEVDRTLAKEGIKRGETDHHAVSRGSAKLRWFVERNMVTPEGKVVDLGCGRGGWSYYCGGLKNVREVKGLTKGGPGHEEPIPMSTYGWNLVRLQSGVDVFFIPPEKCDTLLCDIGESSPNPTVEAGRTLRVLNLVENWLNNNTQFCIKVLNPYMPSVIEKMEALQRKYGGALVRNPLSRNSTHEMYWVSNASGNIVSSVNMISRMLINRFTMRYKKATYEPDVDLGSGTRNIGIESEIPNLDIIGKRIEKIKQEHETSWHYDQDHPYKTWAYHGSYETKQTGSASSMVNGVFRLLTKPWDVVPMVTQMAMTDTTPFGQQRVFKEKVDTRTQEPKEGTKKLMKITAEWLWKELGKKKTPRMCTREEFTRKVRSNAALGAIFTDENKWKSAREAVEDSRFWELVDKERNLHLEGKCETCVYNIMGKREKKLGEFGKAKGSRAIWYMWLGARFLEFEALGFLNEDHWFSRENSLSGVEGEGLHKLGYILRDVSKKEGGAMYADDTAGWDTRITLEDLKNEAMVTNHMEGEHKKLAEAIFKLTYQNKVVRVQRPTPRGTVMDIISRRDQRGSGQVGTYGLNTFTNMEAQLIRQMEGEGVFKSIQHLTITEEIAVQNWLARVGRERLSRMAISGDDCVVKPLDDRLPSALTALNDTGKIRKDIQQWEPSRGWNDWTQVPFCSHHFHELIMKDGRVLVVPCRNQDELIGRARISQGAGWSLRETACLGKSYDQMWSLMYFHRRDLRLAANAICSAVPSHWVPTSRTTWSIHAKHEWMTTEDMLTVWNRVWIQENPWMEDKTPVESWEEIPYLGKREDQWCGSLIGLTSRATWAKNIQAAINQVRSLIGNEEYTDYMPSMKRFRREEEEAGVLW
Cytochrome P450 2C19, sequence (P33261 whole entry): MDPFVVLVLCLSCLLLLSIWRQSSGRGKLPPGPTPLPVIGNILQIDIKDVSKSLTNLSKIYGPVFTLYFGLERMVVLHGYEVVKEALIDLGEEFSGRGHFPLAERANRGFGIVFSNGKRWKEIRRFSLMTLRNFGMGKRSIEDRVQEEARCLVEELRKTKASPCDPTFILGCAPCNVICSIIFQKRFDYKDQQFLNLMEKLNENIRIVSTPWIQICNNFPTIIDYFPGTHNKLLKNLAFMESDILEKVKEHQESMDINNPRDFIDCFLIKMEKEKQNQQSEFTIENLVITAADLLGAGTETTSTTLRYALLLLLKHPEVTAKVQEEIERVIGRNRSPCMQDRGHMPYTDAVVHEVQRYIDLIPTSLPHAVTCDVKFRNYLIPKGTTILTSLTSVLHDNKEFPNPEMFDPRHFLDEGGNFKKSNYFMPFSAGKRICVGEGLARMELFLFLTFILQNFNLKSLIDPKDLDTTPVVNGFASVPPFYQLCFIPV
Phospholipase A2, sequence (P04054 whole entry): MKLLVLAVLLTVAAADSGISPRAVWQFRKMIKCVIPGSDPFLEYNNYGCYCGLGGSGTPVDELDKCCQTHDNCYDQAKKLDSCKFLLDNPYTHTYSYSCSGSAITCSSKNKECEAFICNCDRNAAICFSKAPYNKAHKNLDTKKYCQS
Cytochrome P450 2D6, sequence (P10635 whole entry): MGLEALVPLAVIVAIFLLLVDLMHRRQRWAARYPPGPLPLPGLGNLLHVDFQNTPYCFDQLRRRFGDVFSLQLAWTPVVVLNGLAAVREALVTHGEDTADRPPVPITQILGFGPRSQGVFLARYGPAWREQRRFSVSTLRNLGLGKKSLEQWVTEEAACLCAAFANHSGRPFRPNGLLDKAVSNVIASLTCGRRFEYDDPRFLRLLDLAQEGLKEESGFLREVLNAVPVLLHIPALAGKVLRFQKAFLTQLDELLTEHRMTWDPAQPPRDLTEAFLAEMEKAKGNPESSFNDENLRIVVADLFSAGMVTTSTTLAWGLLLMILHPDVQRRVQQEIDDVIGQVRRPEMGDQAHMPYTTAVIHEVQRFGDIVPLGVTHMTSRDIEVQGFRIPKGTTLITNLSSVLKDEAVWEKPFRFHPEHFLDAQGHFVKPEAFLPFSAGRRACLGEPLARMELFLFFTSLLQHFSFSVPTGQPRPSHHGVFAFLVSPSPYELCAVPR

COc1ccccc1[C@@H]1C(c2ccc(F)cc2)=NN(c2ccccc2)[C@H]1C(=O)N1CCOC1=O
AC50 [1]: 12.6 µM (active) | AC50 [2]: 3.59 µM (active) | AC50 [3]: 7.61 µM (active) | AC50 [4]: 7.77 µM (active)

O=c1nc2n(c(O)c1C(c1ccc(O)cc1)c1c(O)nc3n(c1=O)CCS3)CCS2 (stereo unspecified)
IC50 (Genome polyprotein): 48.5 µM (active)

COc1ccc2c(Cl)cc(NC(=S)Nc3ccccc3)nc2c1
AC50 (Cytochrome P450 2C9 [5]): 3.98 µM (inconclusive) | AC50 (Cytochrome P450 3A4): inconclusive | AC50 (Cytochrome P450 2C19): 3.16 µM (inconclusive)

Cc1ccc(OCC(=O)NNC(=O)c2cc3ccccc3o2)cc1C
AC50 (Cytochrome P450 1A2): 2.51 µM (inconclusive) | AC50 (Cytochrome P450 2C19): 3.55 µM (inconclusive) | AC50 (Cytochrome P450 2C9 [6]): inconclusive

Cn1cccc1C(=O)N1CCC2(CC1)CCN(c1ccccc1)CC2
AC50 (Cytochrome P450 1A2): 12.6 µM (inconclusive) | AC50 (Cytochrome P450 3A4): inconclusive

Cc1ccccc1C(=O)NC(C)c1ccc2c(c1)CCCC2 (stereo unspecified)
AC50 (Cytochrome P450 2D6): 15.8 µM (inconclusive) | AC50 (Cytochrome P450 2C9 [6]): inconclusive

Cc1sc2nc(C(C)C)nc(SCC(=O)NCc3ccco3)c2c1C
IC50 (Phospholipase A2): 5.93 µM (active) | IC50 (Cysteine protease ATG4B): 11.1 µM (active)

Cc1ccc(C)c(S(=O)(=O)NCc2ccc(C(=O)N3CCC(Cc4ccccc4)CC3)cc2)c1
EC50 [7]: > 60 µM (not active) | AC50 (Cytochrome P450 2C9 [6]): inconclusive | EC50 [8]: 2.66 µM (active)

CCOC(=O)c1ccc2nc(C)c(CCC(C)=O)c(Cl)c2c1
AC50 (Cytochrome P450 2C9 [5]): 1 µM (inconclusive) | AC50 (Cytochrome P450 3A4): inconclusive

COc1ccc(OC)c(N2C(=O)NC(=O)/C(=C/c3ccc([N+](=O)[O-])s3)C2=O)c1
EC50 [7]: > 60 µM (inconclusive) | IC50 (Genome polyprotein): 18.8 µM (active) | IC50 (cells): 23.7 µM (active) | AC50 [9]: 3.06 µM (active) | EC50 [8]: 2.1 µM (active)

CCC[N+]1(CC#CC2(O)CCCCC2)CCOCC1
EC50 (Streptococcus): > 150 µM (not active) | EC50 [10]: > 150 µM (not active) | IC50 [11]: 5.44 µM (active) | EC50 (Streptokinase A): > 150 µM (not active)
